Laboratory results published in patent publication US8952024B2, “Herbicidal pyrimidone derivatives” (E I du Pont de Nemours and Company, priority 2009, dated 2015).

Key:
Assay in all cases: Test B pre-/postemergence plant response
Format in all cases: in vivo
[1] = test system: Italian ryegrass (Lolium multiflorum); details: for Ryegrass, Italian plant response rating (0 to 100 scale): postemergence, 0 is no effect, 100 is complete control, 13 to 15 days
Method in brief: (§1)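 Compound in solvent + surfactant applied pre-em (loam/sand) or post-em (plants 2–18 cm, peat medium); greenhouse hold 13–15 days; visual 0–100 control score.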

[2] = test system: Surinam grass (Brachiaria decumbens); details: for Surinam Grass plant response rating (0 to 100 scale): postemergence, 0 is no effect, 100 is complete control, 13 to 15 days
Method in brief: as §1

[3] = test system: downy bromegrass (Bromus tectorum); details: for Bromegrass, Downy plant response rating (0 to 100 scale): 0 is no effect, 13 to 15 days
Method in brief: as §1

[4] = test system: goosegrass (Eleusine indica); details: for Goosegrass plant response rating (0 to 100 scale): 0 is no effect, 13 to 15 days
Method in brief: as §1

[5] = test system: green foxtail (Setaria viridis); details: for Foxtail, Green plant response rating (0 to 100 scale): 0 is no effect, 13 to 15 days
Method in brief: as §1

[6] = test system: lambsquarters (Chenopodium album); details: for Lambsquarters plant response rating (0 to 100 scale): 0 is no effect, 13 to 15 days
Method in brief: as §1

[7] = test system: large crabgrass (Digitaria sanguinalis); details: for Crabgrass, Large plant response rating (0 to 100 scale): 0 is no effect, 13 to 15 days
Method in brief: as §1

[8] = test system: pigweed (Amaranthus retroflexus); details: for Pigweed plant response rating (0 to 100 scale): 0 is no effect, 13 to 15 days
Method in brief: as §1

[9] = test system: ragweed (common ragweed, Ambrosia elatior); details: for Ragweed plant response rating (0 to 100 scale): postemergence, 0 is no effect, 100 is complete control, 13 to 15 days
Method in brief: as §1

[10] = test system: velvetleaf (Abutilon theophrasti); details: for Velvetleaf plant response rating (0 to 100 scale): postemergence, 0 is no effect, 100 is complete control, 13 to 15 days
Method in brief: as §1

[11] = test system: wheat (Triticum aestivum); details: for Wheat plant response rating (0 to 100 scale): postemergence, 0 is no effect, 100 is complete control, 13 to 15 days
Method in brief: as §1

[12] = test system: woolly cupgrass (Eriochloa villosa); details: for Cupgrass, Woolly plant response rating (0 to 100 scale): 0 is no effect, 13 to 15 days
Method in brief: as §1

[13] = test system: yellow nutsedge (Cyperus esculentus); details: for Nutsedge, Yellow plant response rating (0 to 100 scale): 0 is no effect, 13 to 15 days
Method in brief: as §1

[14] = Postemergence, 125 g ai/ha, scale 0 to 100 (0 no effect, 100 complete control)
[15] = Postemergence, 250 g ai/ha, scale 0 to 100 (0 no effect, 100 complete control)
[16] = Preemergence, 31 g ai/ha, scale 0 to 100 (0 no effect, 100 complete control)
[17] = Preemergence, 62 g ai/ha, scale 0 to 100 (0 no effect, 100 complete control)
[18] = Preemergence, 125 g ai/ha, scale 0 to 100, 0 no effect, 100 complete control
[19] = Preemergence, 250 g ai/ha, 0 to 100 scale
[20] = 31 g ai/ha, postemergence, scale 0 to 100, 0 is no effect, 100 is complete control
[21] = 62 g ai/ha, postemergence, 100 is complete control
[22] = Postemergence, 31 g ai/ha, 0 to 100 scale (0 no effect, 100 complete control)

COCCCn1c(-c2cc(F)cc(F)c2)ncc(C(=O)C2=C(O)CCCC2=O)c1=O [Compound 120]
98: Plant response rating, Goosegrass [4, 15] | Plant response rating, Foxtail, Green [5, 17] | Plant response rating, Lambsquarters [6, 14] | Plant response rating, Crabgrass, Large [7, 15] | Plant response rating, Crabgrass, Large [7, 16] | Pigweed plant response rating (0 to 100 scale) [8, 21] | Plant response rating, Velvetleaf [10, 14] | Plant response rating, Nutsedge, Yellow [13, 18] | Nutsedge, Yellow plant response rating [13, 19]
20: Plant response rating, Bromegrass, Downy [3, 20]
100: Plant response rating, Ryegrass, Italian [1, 16] | Plant response rating, Ryegrass, Italian [1, 17] | Plant response rating, Ryegrass, Italian [1, 18] | Ryegrass, Italian plant response rating [1, 19] | Plant response rating, Surinam Grass [2, 14] | Plant response rating, Surinam Grass [2, 15] | Plant response rating, Surinam Grass [2, 16] | Plant response rating, Surinam Grass [2, 17] | Plant response rating, Surinam Grass [2, 18] | Surinam Grass plant response rating [2, 19] | Plant response rating, Goosegrass [4, 16] | Plant response rating, Goosegrass [4, 17] | Plant response rating, Goosegrass [4, 18] | Goosegrass plant response rating [4, 19] | Plant response rating, Foxtail, Green [5, 15] | Plant response rating, Foxtail, Green [5, 18] | Foxtail, Green plant response rating [5, 19] | Plant response rating, Lambsquarters [6, 15] | Plant response rating, Lambsquarters [6, 16] | Plant response rating, Lambsquarters [6, 17] | Plant response rating, Lambsquarters [6, 18] | Lambsquarters plant response rating [6, 19] | Plant response rating, Crabgrass, Large [7, 17] | Plant response rating, Crabgrass, Large [7, 18] | Crabgrass, Large plant response rating [7, 19] | Plant response rating, Pigweed [8, 14] | Plant response rating, Pigweed [8, 15] | Plant response rating, Pigweed [8, 17] | Plant response rating, Pigweed [8, 18] | Pigweed plant response rating [8, 19] | Plant response rating, Velvetleaf [10, 15] | Plant response rating, Velvetleaf [10, 17] | Plant response rating, Velvetleaf [10, 18] | Velvetleaf plant response rating [10, 19] | Plant response rating, Cupgrass, Woolly [12, 14] | Plant response rating, Cupgrass, Woolly [12, 15]
30: Plant response rating, Bromegrass, Downy [3, 17] | Plant response rating, Bromegrass, Downy [3, 18] | Wheat plant response rating [11, 19]
90: Plant response rating, Foxtail, Green [5, 20] | Cupgrass, Woolly plant response rating [12, 19] | Plant response rating, Nutsedge, Yellow [13, 17]
85: Surinam Grass plant response rating (0 to 100 scale) ([2]; 62 g ai/ha) | Bromegrass, Downy plant response rating [3, 19] | Plant response rating, Goosegrass [4, 14] | Lambsquarters plant response rating (0 to 100 scale) [6, 21] | Crabgrass, Large plant response rating (0 to 100 scale) [7, 21]
60: Plant response rating, Ryegrass, Italian [1, 14] | Bromegrass, Downy plant response rating (0 to 100 scale) [3, 21] | Plant response rating, Bromegrass, Downy [3, 14] | Plant response rating, Wheat [11, 14]
5: Plant response rating, Nutsedge, Yellow [13, 20]
25: Plant response rating, Wheat [11, 18]
80: Plant response rating, Ryegrass, Italian [1, 15] | Plant response rating, Bromegrass, Downy [3, 15] | Goosegrass plant response rating (0 to 100 scale) [4, 21] | Plant response rating, Lambsquarters [6, 20] | Plant response rating, Crabgrass, Large [7, 20] | Plant response rating, Ragweed [9, 15] | Plant response rating, Ragweed [9, 16] | Plant response rating, Ragweed [9, 17] | Plant response rating, Velvetleaf [10, 16]
35: Nutsedge, Yellow plant response rating (0 to 100 scale) [13, 21]
50: Plant response rating, Cupgrass, Woolly [12, 16]
65: Plant response rating, Nutsedge, Yellow [13, 14]
10: Plant response rating, Bromegrass, Downy [3, 16]
70: Plant response rating, Cupgrass, Woolly [12, 20] | Plant response rating, Cupgrass, Woolly [12, 17] | Plant response rating, Nutsedge, Yellow [13, 16]
0: Plant response rating, Wheat [11, 16] | Plant response rating, Wheat [11, 17]
95: Foxtail, Green plant response rating (0 to 100 scale) [5, 21] | Plant response rating, Foxtail, Green [5, 14] | Plant response rating, Foxtail, Green [5, 16] | Plant response rating, Crabgrass, Large [7, 14] | Plant response rating, Pigweed [8, 20] | Plant response rating, Pigweed [8, 16] | Plant response rating, Ragweed [9, 18] | Ragweed plant response rating [9, 19] | Velvetleaf plant response rating (0 to 100 scale) ([10]; 62 g ai/ha)
40: Ryegrass, Italian plant response rating (0 to 100 scale) ([1]; 62 g ai/ha) | Wheat plant response rating (0 to 100 scale) ([11]; 62 g ai/ha)
75: Plant response rating, Goosegrass [4, 20] | Ragweed plant response rating (0 to 100 scale) ([9]; 62 g ai/ha) | Plant response rating, Ragweed [9, 14] | Cupgrass, Woolly plant response rating (0 to 100 scale) [12, 21] | Plant response rating, Cupgrass, Woolly [12, 18] | Plant response rating, Nutsedge, Yellow [13, 15]

CCCCn1c(-c2cc(F)cc(F)c2)ncc(C(=O)C2=C(O)CCCC2=O)c1=O [Compound 121]
25: Plant response rating, Bromegrass, Downy [3, 20]
95: Plant response rating, Goosegrass [4, 20] | Plant response rating, Lambsquarters [6, 20] | Plant response rating, Crabgrass, Large [7, 14] | Plant response rating, Ragweed [9, 15] | Plant response rating, Cupgrass, Woolly [12, 20]
85: Plant response rating, Crabgrass, Large [7, 20] | Ragweed plant response rating (0 to 100 scale) ([9]; 62 g ai/ha)
40: Ryegrass, Italian plant response rating (0 to 100 scale) ([1]; 62 g ai/ha)
45: Wheat plant response rating (0 to 100 scale) ([11]; 62 g ai/ha) | Plant response rating, Wheat [11, 14] | Nutsedge, Yellow plant response rating (0 to 100 scale) [13, 21] | Plant response rating, Nutsedge, Yellow [13, 14]
100: Surinam Grass plant response rating (0 to 100 scale) ([2]; 62 g ai/ha) | Plant response rating, Surinam Grass [2, 14] | Plant response rating, Surinam Grass [2, 15] | Plant response rating, Foxtail, Green [5, 14] | Plant response rating, Foxtail, Green [5, 15] | Lambsquarters plant response rating (0 to 100 scale) [6, 21] | Plant response rating, Lambsquarters [6, 14] | Plant response rating, Lambsquarters [6, 15] | Plant response rating, Pigweed [8, 20] | Pigweed plant response rating (0 to 100 scale) [8, 21] | Plant response rating, Pigweed [8, 14] | Plant response rating, Pigweed [8, 15] | Plant response rating, Velvetleaf [10, 14] | Plant response rating, Velvetleaf [10, 15] | Cupgrass, Woolly plant response rating (0 to 100 scale) [12, 21] | Plant response rating, Cupgrass, Woolly [12, 14] | Plant response rating, Cupgrass, Woolly [12, 15]
50: Bromegrass, Downy plant response rating (0 to 100 scale) [3, 21] | Plant response rating, Nutsedge, Yellow [13, 15]
5: Plant response rating, Nutsedge, Yellow [13, 20]
70: Plant response rating, Ryegrass, Italian [1, 14]
80: Plant response rating, Bromegrass, Downy [3, 14] | Plant response rating, Foxtail, Green [5, 20]
75: Plant response rating, Ryegrass, Italian [1, 15]
90: Plant response rating, Bromegrass, Downy [3, 15] | Foxtail, Green plant response rating (0 to 100 scale) [5, 21] | Crabgrass, Large plant response rating (0 to 100 scale) [7, 21] | Plant response rating, Ragweed [9, 14]
98: Goosegrass plant response rating (0 to 100 scale) [4, 21] | Plant response rating, Goosegrass [4, 14] | Plant response rating, Goosegrass [4, 15] | Plant response rating, Crabgrass, Large [7, 15] | Velvetleaf plant response rating (0 to 100 scale) ([10]; 62 g ai/ha)

COCCn1c(-c2cccc(F)c2)ncc(C(=O)C2=C(O)CCCC2=O)c1=O [Compound 123]
15: Wheat plant response rating (0 to 100 scale) ([11]; 62 g ai/ha) | Plant response rating, Wheat [11, 14]
60: Foxtail, Green plant response rating (0 to 100 scale) [5, 21]
70: Plant response rating, Crabgrass, Large [7, 22] | Plant response rating, Ragweed [9, 22]
5: Ryegrass, Italian plant response rating (0 to 100 scale) ([1]; 62 g ai/ha) | Plant response rating, Ryegrass, Italian [1, 14] | Bromegrass, Downy plant response rating (0 to 100 scale) [3, 21]
98: Plant response rating, Lambsquarters [6, 14] | Plant response rating, Lambsquarters [6, 15] | Pigweed plant response rating (0 to 100 scale) [8, 21] | Plant response rating, Ragweed [9, 15]
100: Plant response rating, Pigweed [8, 14] | Plant response rating, Pigweed [8, 15] | Plant response rating, Velvetleaf [10, 15]
10: Plant response rating, Bromegrass, Downy [3, 14] | Plant response rating, Wheat [11, 22]
50: Plant response rating, Ryegrass, Italian [1, 15] | Plant response rating, Foxtail, Green [5, 22]
75: Surinam Grass plant response rating (0 to 100 scale) ([2]; 62 g ai/ha) | Plant response rating, Cupgrass, Woolly [12, 14] | Nutsedge, Yellow plant response rating (0 to 100 scale) [13, 21] | Plant response rating, Nutsedge, Yellow [13, 14]
85: Plant response rating, Surinam Grass [2, 14] | Plant response rating, Surinam Grass [2, 15] | Plant response rating, Goosegrass [4, 15] | Plant response rating, Foxtail, Green [5, 14] | Plant response rating, Crabgrass, Large [7, 14] | Ragweed plant response rating (0 to 100 scale) ([9]; 62 g ai/ha)
80: Plant response rating, Goosegrass [4, 14] | Plant response rating, Lambsquarters [6, 22] | Crabgrass, Large plant response rating (0 to 100 scale) [7, 21] | Plant response rating, Pigweed [8, 22] | Plant response rating, Velvetleaf [10, 22] | Plant response rating, Nutsedge, Yellow [13, 15]
90: Plant response rating, Foxtail, Green [5, 15] | Plant response rating, Crabgrass, Large [7, 15] | Velvetleaf plant response rating (0 to 100 scale) ([10]; 62 g ai/ha) | Plant response rating, Cupgrass, Woolly [12, 15]
95: Lambsquarters plant response rating (0 to 100 scale) [6, 21] | Plant response rating, Ragweed [9, 14] | Plant response rating, Velvetleaf [10, 14]
25: Plant response rating, Surinam Grass [2, 22] | Plant response rating, Cupgrass, Woolly [12, 22]
0: Plant response rating, Ryegrass, Italian [1, 22] | Plant response rating, Bromegrass, Downy [3, 22]
65: Goosegrass plant response rating (0 to 100 scale) [4, 21] | Plant response rating, Goosegrass [4, 22] | Plant response rating, Nutsedge, Yellow [13, 22]
45: Plant response rating, Bromegrass, Downy [3, 15] | Cupgrass, Woolly plant response rating (0 to 100 scale) [12, 21]
